In patent publication US12642756B2, “Leave-on composition” (Firmenich SA, priority 2020, dated 2026):

Legend:
[1] = tested on: lipase enzyme (Enzyme Innovation Addclean LP L); test: Reaction rate measurement in solution in the presence of a hydrolase (GC/MS); format: biochemical
Method: The release kinetics of 3,7-dimethyl-2,6-octadien-1-yl hexadecanoate (comparative compound) and (2E,6Z)-nona-2,6-dien-1-yl hexadecanoate (invention's compound) in the presence of a hydrolase were compared.
In order to compare the reaction rate of the esters, the amount of 3,7-dimethyl-2,6-octadien-1-yl hexadecanoate and (2E,6Z)-nona-2,6-dien-1-yl hexadecanoate and the amount of ethyl hexadecanoate over time were measured by GC/MS. The ethyl hexadecanoate was formed by the reaction between the hexadecanoic acid released and the ethanol.
Enzyme Solution Preparation: The lipase enzyme source used was Enzyme Innovation Addclean LP L at an activity of 20000 Lipase Units/g. A stock solution of 100 LU/ml was prepared and diluted in serial dilution to working concentrations as follows:
The solutions comprising 3,7-dimethyl-2,6-octadien-1-yl hexadecanoate or (2E,6Z)-nona-2,6-dien-1-yl hexadecanoate (also called palmitate ester solutions) were prepared by dissolving in ethanol to 5% by weight. These were subsequently diluted to working conditions of the experiment.
In a 2 ml Agilent GC vial (Agilent 5183-2068), 50 ul of 100 LU/ml solution was added with a micropipette. 100 ul deionized water was added to ensure continued hydrolysis. Samples to were prepared for each time condition, replicate, and palmitate ester solutions of interest because the reaction will be stopped and only measured once at 0 hours, 0.5 hours and 1 hour. […]
The palmitate esters were prepared by dissolving in ethanol to 5% by weight (stock). Palmitate ester solution was further diluted to 0.2% and 50 ul added to all sample vials above and recorded as time zero. […] Samples were analyzed by GC/MS direct injection methodology as follows.
GC-MS analyses were performed on an Agilent Gas Chromatograph system 7890B coupled to an Agilent Mass Selective Detector 5977B and equipped with a Gerstel MPS autosampler or equivalent. […] External calibration curves of (2E,6Z)-nona-2,6-dien-1-yl hexadecanoate and 3,7-dimethyl-2,6-octadien-1-yl hexadecanoate were prepared at 10-500 ppm was prepared and sample signal quantified in ppm.

[2] = Paneling of released fragrance alcohols on glass slides (sensory panel)
Method: Evaporation kinetics using 76 mm×51 mm glass slides was carried out. Prazitherm precision hotplate was pre-heated to 32 degrees Celsius for 30 minutes. Three glass slides were placed on the precision hotplate. Each glass slide is labeled with a unique code so that its identity is unknown to the panelists. Using a Gilson Microman M25 positive displacement pipette, […] of 0.1 LU lipase solution was dosed directly to the center of one of the glass slides. Then 20 μl of 1% (2E,6Z)-nona-2,6-dien-1-yl hexadecanoate was dosed very slowly to the lipase droplet. Once all the sample solution was applied onto the glass slide, the applied glass slide was evaporated on the precision hotplate for 4 hours at 32 degrees Celsius. Sample preparation for 1% (Z)-3-hexen-1-yl hexadecanoate solution and 1% 3,7-dimethyl-2,6-octadien-1-yl hexadecanoate solution were done the same way. Sample preparations for all three solutions were repeated for duplicates to replace each glass slide twice during the sensory panel period—the limit for a glass slide sample set (with 3 different glass slide samples) was 10 evaluations. At the 4-hour time interval, a spray bottle filled with deionized water was primed and then water was sprayed directly onto each glass slide once. One spray was enough to cover the glass slide. All glass slides were allowed to sit for 10 minutes before the sensory panel so the water was absorbed by the evaporated mixtures to represent humidity on skin. For evaluation, the panelist picks up the treated glass slides, smells the center and rates the intensity of each slide on an evaluation sheet.
In one test, the panelists rated odor intensity on a scale of 1 to 7 for each glass slide evaluated under release by the hydrolase at time 4 hours. The second approach was the so-called forced choice where panelists were forced to select the most intense out of the three […] after release with the Hydrolase at 4 hours at 0.1 LU/ml.

[3] = tested on: Hydrolase (Lipase solution 0.100 LU/ml); test: Fragrance evolution on Tzero lids (dynamic headspace) in a personal care base; format: biochemical; conditions: day cream base O/W emulsion with 1 wt% compound, absence of hydrolase (water control), 32C, 4 hours
Method: To confirm fragrance release in presence of personal care base, personal care base was formulated with invention's compound and analyzed by an in-vitro assay measuring the functional perfume ingredient in the gaseous phase.
Testing was done in the presence of physiologically relevant concentration of Hydrolase (0.1 LU/ml) as follows. […] 901671.901] crucibles. 2.5 ul of personal care base with (2E,6Z)-nona-2,6-dien-1-yl hexadecanoate was added to the same crucibles and placed on preheated precision hotplate to 32C. Additional aliquots of 2.5 ul water were added to the crucibles at 1 h and 4 h to simulate humidity on skin and facilitate hydrolysis. The crucibles were transferred to 20 ml headspace vials after 4 hours at 32C.
Analysis performed by Dynamic Headspace using Tenax TA trap outlined as follows. GC-MS-DHS analyses were performed on an Agilent Gas Chromatograph system 7890B coupled to an Agilent Mass Selective Detector 5977B and equipped with a Gerstel MPS autosampler. Additionally equipment of automated Gerstel Dynamic Headspace System, ATEX air sampling tube gripper for 20 mL headspace vials with a metal screw cap (preassembled with 1.3 mm PTFE septa) and Gerstel CIS 4C cryostatic cooling device CCD2 (Inlet 2) mounted with Gerstel TDU2 thermal desorption unit. […]

[4] = tested on: Hydrolase (Lipase solution 0.100 LU/ml); test: Fragrance evolution on Tzero lids (dynamic headspace), palmitate esters; format: biochemical
Method: To further investigate the release kinetics of palmitate esters in the presence of hydrolases, an in-vitro assay measuring the functional perfume ingredient in the gaseous phase was devised.
Three palmitate esters releasing respectively (2E,6Z)-nona-2,6-dien-1-ol (corresponding to invention's compound) and 3,7-dimethyl-2,6-octadien-1-ol (corresponding to comparative compound) were tested in the presence of physiologically relevant concentration of Hydrolase (0.1 LU/ml) as follows. 2.5 ul Lipase solution (0.100 LU/ml) was added to Tzero Lids TA [Part no. 901671.901] crucibles. 2.5 ul of 0%, […], 0.1%, […] and 1% solution in ethanol of palmitate esters were added to the same crucibles and placed on preheated precision hotplate to 32C. Additional aliquots of 2.5 ul water were added to the crucibles at 1 h and 4 h to simulate humidity on skin and facilitate hydrolysis. The crucibles were transferred to 20 ml headspace vials after […] at 32C.
Analysis performed by Dynamic Headspace using Tenax TA trap outlined as follows. GC-MS-DHS analyses were performed on an Agilent Gas Chromatograph system 7890B coupled to an Agilent Mass Selective Detector 5977B and equipped with a Gerstel MPS autosampler. […]

[5] = glass slide, 0.1 LU/ml lipase, 4 hours

| release of (2E,6Z)-nona-2,6-dien-1-ol in headspace from personal care base [3] | SMILES | total rate of lipase-catalyzed reaction ([1]; compared with 3,7-dimethyl-2,6-octadien-1-yl hexadecanoate) | concentration of the ester in solution in function of time ([1]; lipase 100 LU/ml solution, 32C, 0, 0.5 and 1 hour, GC/MS, compared with 3,7-dimethyl-2,6-octadien-1-yl hexadecanoate (FIG. 1)) | release of the alcohol, confirmed by increase of ethyl hexadecanoate ([1]; lipase, ethanol present, 32C, up to 1 hour, compared with 3,7-dimethyl-2,6-octadien-1-ol (FIG. 2)) | odor intensity rated by panelists on a scale of 1 to 7 ([2]; 1% solution on glass slide, 0.1 LU/ml lipase, 4 hours at 32 degrees Celsius, versus the two other hexadecanoates (FIG. 6)) | perception / impression by the panelists [2, 5] | forced choice: panelists who selected the sample as the most intense ([2]; glass slide, Hydrolase 0.1 LU/ml, 4 hours, three esters compared (FIG. 7)) | rate of release of fragrance material into headspace ([4]; Hydrolase 0.1 LU/ml, 32C, 4 hours, on Tzero lids (FIG. 3)) | release rate compared with 3,7-dimethyl-2,6-octadien-1-yl hexadecanoate ([4]; stated in Example 6, test not named) |
| --- | --- | --- | --- | --- | --- | --- | --- | --- | --- |
| no release is observed | CC/C=C\CC/C=C/COC(=O)CCCCCCCCCCCCCCC [(2E,6Z)-nona-2,6-dien-1-yl hexadecanoate] | higher total rate of lipase-catalyzed reaction | decreased more rapid than the concentration of 3,7-dimethyl-2,6-octadien-1-yl hexadecanoate | faster release of (2E,6Z)-nona-2,6-dien-1-ol compared to 3,7-dimethyl-2,6-octadien-1-ol | significantly more intense | the most intense impression | 20/21 | higher rate than 3,7-dimethyl-2,6-octadien-1-yl hexadecanoate | – |
| – | CC/C=C\CCOC(=O)CCCCCCCCCCCCCCC [(Z)-3-hexen-1-yl hexadecanoate, reference compound] | – | – | – | – | not well perceived by the panelists | – | – | release faster than 3,7-dimethyl-2,6-octadien-1-yl hexadecanoate |
